Test results: US12252481B2, “Anti-viral compounds” (Aligos Therapeutics, Inc., priority 2021, dated 2025)
Read-outs that look alike come from different tables or passages of the source.

What was measured:
[1] = molecular target: T1, human cathepsin L (Homo sapiens, UniProt P07711); assay: Cathepsin L assay (Z-FR-AMC fluorescence); type: biochemical; conditions: 10 pM human cathepsin L, 30 mins preincubation, Z-FR-AMC 2 μM
T1 construct: purchased R&D Systems
Summary of the method: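 Human cathepsin L (10 pM) was preincubated 30 min with compound, then reactions were started with Z-FR-AMC substrate (2 μM final). AMC fluorescence (355/460 nm) was read every 2 min over 30 min. IC50 came from a four-parameter curve fit.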

[2] = tested on: SARS-CoV-2-GHB-03021/2020; type: cell-based; conditions: read-out: VeroE6 + CP (EC50)
[3] = molecular target: T2, HRV3C (Human rhinovirus 14, UniProt P03303); assay: biochemical; design: species or system HRV; conditions: HRV3C, 30 mins preincubation, SAMDI-MS
T2 construct: 3CLpro and HRV3C was added using a Multidrop Combi
T2 sequence (P03303 1538-1719): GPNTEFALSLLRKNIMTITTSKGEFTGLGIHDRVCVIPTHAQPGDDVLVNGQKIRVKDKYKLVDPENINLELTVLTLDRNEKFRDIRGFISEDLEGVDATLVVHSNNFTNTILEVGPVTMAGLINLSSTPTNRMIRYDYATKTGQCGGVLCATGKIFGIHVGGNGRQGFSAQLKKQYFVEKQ

[4] = tested on: B.1.1.7 lineage SARS-CoV-2; assay: microbe, parasite or virus in culture; type: cell-based; conditions: Severe acute respiratory syndrome coronavirus 2, 96 h; read-out: A549-dual_ACE2_TMPRSS2 (EC50)
[5] = tested on: human beta-coronavirus OC43; assay: OC43 coronavirus antiviral assay in HeLa cells (cytopathic effect, cell-titer-glo); type: cell-based; conditions: Betacoronavirus 1, OC43, HeLa, 144 h, 6 days at 33° C., read-out: EC50 (class)
[6] = molecular target: T3, SARS-Cov-2 3CLpro (Severe acute respiratory syndrome coronavirus 2, UniProt P0DTD1); assay: biochemical; conditions: 3CLpro, 30 mins preincubation, SAMDI-MS; read-out: SARS-Cov-2 IC50 (class)
T3 construct: 3CLpro and HRV3C was added using a Multidrop Combi

T1 sequence (P07711 114-333): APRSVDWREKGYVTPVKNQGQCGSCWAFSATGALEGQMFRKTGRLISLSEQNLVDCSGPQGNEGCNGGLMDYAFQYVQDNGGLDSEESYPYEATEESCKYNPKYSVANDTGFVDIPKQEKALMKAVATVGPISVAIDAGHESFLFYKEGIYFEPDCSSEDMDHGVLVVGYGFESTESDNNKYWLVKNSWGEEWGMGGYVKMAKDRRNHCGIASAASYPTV

Compound	IC50 [1] [nM]	EC50 [2] [nM]	IC50 ([3]; read-out: HRV IC50 (bound)) [nM]	EC50 [4] [nM]	EC50 [5] [nM]	IC50 [6] [nM]	IC50 ([3]; read-out: HRV IC50 (class)) [nM]
CC(C)(C)[C@H](NC(=O)c1ccco1)C(=O)N1C[C@H]2[C@@H]([C@H]1C(=O)N[C@H](C#N)C[C@@H]1CCNC1=O)[C@H]1C=C[C@@H]2C1 [Example 19, (1S,3aR,4S,7R,7aS)-N-((S)-1-cyano-2-((S)-2-oxopyrrolidin-3-yl)ethyl)-2-((S)-2-(furan-2-carboxamido)-3,3-dimethylbutanoyl)-2,3,3a,4,7,7a-hexahydro-1H-4,7-methanoisoindole-1-carboxamide]	≥ 10000	100 to 1000	> 10000	100 to 1000	< 100	20 to 200	–
CC(C)(C)[C@H](NC(=O)C(F)(F)F)C(=O)N1C[C@@H]2[C@H]3C[C@@H]([C@@H]2[C@H]1C(=O)N[C@H](C#N)C[C@@H]1CCNC1=O)[C@H]1[C@@H]3C1(F)F [Example 23, (1S,2S,3S,6R,7R,8R,10S)—N-[(1S)-1-cyano-2-[(3S)-2-oxopyrrolidin-3-yl]ethyl]-4-[(2S)-3,3-dimethyl-2-(2,2,2-trifluoroacetamido)butanoyl]-9,9-difluoro-4-azatetracyclo[5.3.1.0^{2,6}0.0^{8,10}]undecane-3-carboxamide]	≥ 10000	100 to 1000	> 10000	100 to 1000	1000 to 10000	20 to 200	–
O=C(NC1CC1)C(=O)C(C[C@@H]1CCNC1=O)NC(=O)[C@@H]1[C@@H]2[C@H](CN1C(=O)c1cc3c(Cl)cc(Cl)cc3[nH]1)[C@@H]1C=C[C@H]2C1 (stereo partly drawn) [Compound 46, (1S,3aR,4S,7R,7aS)—N-(4-(cyclopropylamino)-3,4-dioxo-1-((S)-2-oxopyrrolidin-3-yl)butan-2-yl)-2-(4,6-dichloro-1H-indole-2-carbonyl)-2,3,3a,4,7,7a-hexahydro-1H-4,7-methanoisoindole-1-carboxamide]	≥ 10000	100 to 1000	–	100 to 1000	100 to 1000	< 20	200 to 2000
CC(C)(C)[C@H](NC(=O)C(F)(F)F)C(=O)N1C[C@H]2[C@@H]([C@H]1C(=O)N[C@H](C#N)C[C@@H]1CCNC1=O)[C@H]1C=C[C@@H]2C1 [Example 1, (1S,3aR,4S,7R,7aS)-N-((S)-1-cyano-2-((S)-2-oxopyrrolidin-3-yl)ethyl)-2-((S)-3,3-dimethyl-2-(2,2,2-trifluoroacetamido)butanoyl)-2,3,3a,4,7,7a-hexahydro-1H-4,7-methanoisoindole-1-carboxamide]	≥ 10000	< 100	> 10000	< 100	< 100	< 20	–
CC(C)(C)[C@H](NC(=O)C(F)(F)F)C(=O)N1C[C@H]2[C@@H]([C@H]1C(=O)NC(C#N)Cc1ccc[nH]c1=O)[C@H]1C=C[C@@H]2C1 (single isomer, unassigned) [Compound 57, (1S,3aR,4S,7R,7aS)-N-((S*)-1-cyano-2-(2-oxo-1,2-dihydropyridin-3-yl)ethyl)-2-((S)-3,3-dimethyl-2-(2,2,2-trifluoroacetamido)butanoyl)-2,3,3a,4,7,7a-hexahydro-1H-4,7-methanoisoindole-1-carboxamide]	≥ 10000	100 to 1000	> 10000	100 to 1000	100 to 1000	20 to 200	–
CC(C)(C)[C@H](NC(=O)C(F)(F)F)C(=O)N1C[C@H]2[C@@H]([C@H]1C(=O)N[C@H](C#N)C[C@@H]1CCNC1=O)[C@H]1CC[C@@H]2C12CC2 [Example 18, (1′R,2′S,3′S,6′R,7′S)—N-[(1S)-1-cyano-2-[(3S)-2-oxopyrrolidin-3-yl]ethyl]-4′-[(2S)-3,3-dimethyl-2-(2,2,2-trifluoroacetamido)butanoyl]-4′-azaspiro[cyclopropane-1,10′-tricyclo[5.2.1.0^{2,6}]decane]-3′-carboxamide]	≥ 10000	< 100	> 10000	100 to 1000	< 100	< 20	–
CC(C)(C)[C@H](NC(=O)C(F)(F)F)C(=O)N1C[C@H]2[C@@H]([C@H]1C(=O)N[C@H](C#N)C[C@@H]1CC3(CC3)NC1=O)[C@H]1C=C[C@@H]2C1 [Example 14, (1S,3aR,4S,7R,7aS)-N-((S)-1-cyano-2-((R)-5-oxo-4-azaspiro[2.4]heptan-6-yl)ethyl)-2-((S)-3,3-dimethyl-2-(2,2,2-trifluoroacetamido)butanoyl)-2,3,3a,4,7,7a-hexahydro-1H-4,7-methanoisoindole-1-carboxamide]	≥ 10000	< 100	> 10000	< 100	< 100	< 20	–
CC(C)(C)[C@H](NC(=O)C(F)(F)F)C(=O)N1C[C@H]2[C@@H]([C@H]1C(=O)NC(C#N)C[C@]13CC[C@H](C1)NC3=O)[C@H]1C=C[C@@H]2C1 (stereo partly drawn) [Example 26, (1S,3aR,4S,7R,7aS)—N-(1-cyano-2-((1R,4S)-3-oxo-2-azabicyclo[2.2.1]heptan-4-yl)ethyl)-2-((S)-3,3-dimethyl-2-(2,2,2-trifluoroacetamido)butanoyl)-2,3,3a,4,7,7a-hexahydro-1H-4,7-methanoisoindole-1-carboxamide]	≥ 10000	100 to 1000	> 10000	100 to 1000	100 to 1000	20 to 200	–
CC(C)(C)[C@H](NC(=O)[C@@H]1CC1(F)F)C(=O)N1C[C@H]2[C@@H]([C@H]1C(=O)N[C@H](C#N)C[C@@H]1CCNC1=O)[C@H]1C=C[C@@H]2C1 [Compound 41]	≥ 10000	< 100	> 10000	< 100	< 100	< 20	–
CC(C)(C)[C@H](NC(=O)C1(F)CC1)C(=O)N1C[C@H]2[C@@H]([C@H]1C(=O)N[C@H](C#N)C[C@@H]1CCNC1=O)[C@H]1C=C[C@@H]2C1 [Example 30, (1R,2S,3S,6R,7S)—N-[(1S)-1-cyano-2-[(3S)-2-oxopyrrolidin-3-yl]ethyl]-4-[(2S)-2-[(1-fluorocyclopropyl)formamido]-3,3-dimethylbutanoyl]-4-azatricyclo[5.2.1.0^{2,6}]dec-8-ene-3-carboxamide]	≥ 10000	< 100	> 10000	< 100	< 100	< 20	–
CC(C)(C)[C@H](NC(=O)C(F)(F)F)C(=O)N1C[C@@H]2[C@@H]3CC[C@@H](C3)[C@@H]2[C@H]1C(=O)N[C@H](C#N)CC1Cn2nccc2NC1=O (relative stereo) [Compound 17a, (1S,3aR,4R,7S,7aS)-N-((S)-1-cyano-2-((R*)-5-oxo-4,5,6,7-tetrahydropyrazolo[1,5-a]pyrimidin-6-yl)ethyl)-2-((S)-3,3-dimethyl-2-(2,2,2-trifluoroacetamido)butanoyl)octahydro-1H-4,7-methanoisoindole-1-carboxamide]	≥ 10000	< 100	> 10000	100 to 1000	< 100	< 20	–
CC(C)(C)[C@H](NC(=O)C(F)(F)F)C(=O)N1C[C@H]2[C@@H]([C@H]1C(=O)N[C@H](C#N)C[C@@H]1CCCNC1=O)[C@H]1C=C[C@@H]2C1 [Example 16, (1S,3aR,4S,7R,7aS)-N-((S)-1-cyano-2-((S)-2-oxopiperidin-3-yl)ethyl)-2-((S)-3,3-dimethyl-2-(2,2,2-trifluoroacetamido)butanoyl)-2,3,3a,4,7,7a-hexahydro-1H-4,7-methanoisoindole-1-carboxamide]	≥ 10000	< 100	> 10000	< 100	< 100	< 20	–
N#C[C@H](C[C@@H]1CCNC1=O)NC(=O)[C@@H]1[C@@H]2[C@H](CN1C(=O)c1cc3c(Cl)cc(Cl)cc3[nH]1)[C@@H]1C=C[C@H]2C1 [Compound 44, (1S,3aR,4S,7R,7aS)-N-((S)-1-cyano-2-((S)-2-oxopyrrolidin-3-yl)ethyl)-2-(4,6-dichloro-1H-indole-2-carbonyl)-2,3,3a,4,7,7a-hexahydro-1H-4,7-methanoisoindole-1-carboxamide]	≥ 10000	1000 to 10000	> 10000	1000 to 10000	100 to 1000	20 to 200	–
CC1(C(NC(=O)C(F)(F)F)C(=O)N2C[C@H]3[C@@H]([C@H]2C(=O)N[C@H](C#N)C[C@@H]2CCNC2=O)[C@H]2C=C[C@@H]3C2)CC1 (stereo partly drawn) [Example 24, (1R,2S,3S,6R,7S)—N-[(1S)-1-cyano-2-[(3S)-2-oxopyrrolidin-3-yl]ethyl]-4-[2-(1-methylcyclopropyl)-2-(2,2,2-trifluoroacetamido)acetyl]-4-azatricyclo[5.2.1.0^{2,6}]dec-8-ene-3-carboxamide]	≥ 10000	100 to 1000	> 10000	100 to 1000	< 100	< 20	–
